# pIC50: −log10 of the molar value.
# Biological target: T1, Drak2 (Homo sapiens, UniProt O94768)
# T1 sequence (O94768 1-372): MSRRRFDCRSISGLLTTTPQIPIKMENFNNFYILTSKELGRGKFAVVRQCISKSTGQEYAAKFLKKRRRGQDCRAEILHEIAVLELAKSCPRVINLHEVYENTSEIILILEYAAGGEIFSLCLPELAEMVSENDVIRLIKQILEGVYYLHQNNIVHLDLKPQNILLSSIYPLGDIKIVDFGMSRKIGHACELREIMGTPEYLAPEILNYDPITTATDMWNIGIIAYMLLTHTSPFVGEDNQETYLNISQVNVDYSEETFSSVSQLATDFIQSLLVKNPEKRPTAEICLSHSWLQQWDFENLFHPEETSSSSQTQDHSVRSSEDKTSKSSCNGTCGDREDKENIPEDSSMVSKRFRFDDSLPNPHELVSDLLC
# Assay: Drak2 activity test, ADP-Glo kinase assay (Promega)
# Assay type: biochemical
# Conditions: inhibition of Drak2 kinase activity, 2 h room temperature, activity range classes, read-out: IC50_Drak2
row,pIC50,Compound
1,7.00 to 7.96,"COc1cc(-c2cncc(-c3cc(NC(=O)CC4CCCC4)cs3)n2)ccc1C(=O)Nc1nnnn1C [Example B27, 2-methoxy-4-(6-(4-(2-cyclopentylacetamido)thiophen-2-yl)pyrazin-2-yl)-N-(1-methyl-1H-tetrazol-5-yl)benzamide]"
2,7.00 to 7.96,"COc1cc(-c2cncc(-c3cc(NC(=O)CC4CC4)cs3)n2)ccc1C(=O)N1CCN(C)CC1 [Example B38, 2-cyclopropyl-N-(5-(6-(3-methoxy-4-(4-methylpiperazine-1-carbonyl)phenyl)pyrazin-2-yl)thiophen-3-yl)acetamide]"
3,6.00 to 7.00,"COc1cc(-c2cncc(-c3cc(NC(=O)CC4CCC4)cs3)n2)ccc1[S+](C)[O-] (stereo not shown) [Example A47, 2-cyclobutyl-N-(5-(6-(3-methoxy-4-(methylsulfinyl)phenyl)pyrazin-2-yl)thiophen-3-yl)acetamide]"
4,7.00 to 7.96,"COc1cc(-c2cncc(-c3cc(NC(=O)CC4CC(C(C)(F)F)C4)cs3)n2)ccc1C(=O)N(C)C1CCN(C)CC1 (stereo not shown) [Example B92, 4-(6-(4-(2-(3-(1,1-difluoroethyl)cyclobutyl)acetamido)thiophen-2-yl)pyrazin-2-yl)-2-methoxy-N-methyl-N-(1-methylpiperidin-4-yl)benzamide]"
5,7.00 to 7.96,"COc1cc(-c2cncc(-c3cc(NC(=O)CC4CC4)cs3)n2)ccc1C(=O)N(C)C1CCN(C)CC1 [Example B60, 4-(6-(4-(2-cyclopropylacetamido)thiophen-2-yl)pyrazin-2-yl)-2-methoxy-N-methyl-N-(1-methylpiperidin-4-yl)benzamide]"
6,6.00 to 7.00,"CCCCCC(=O)Nc1csc(-c2cncc(-c3ccc(C(=O)Nc4nnn[nH]4)c(OC)c3)n2)c1 [Example B16, 2-methoxy-4-(6-(4-hexanamidothiophen-2-yl)pyrazin-2-yl)-N-(1H-tetrazol-5-yl)benzamide]"
7,6.00 to 7.00,"CCCCC(=O)Nc1csc(-c2cncc(-c3ccc(C4=NOC(=O)C4)c(OC)c3)n2)c1 [Example A37, N-(5-(6-(3-methoxy-4-(5-oxo-4,5-dihydroisoxazol-3-yl)phenyl)pyrazin-2-yl)thiophen-3-yl)pentanamide]"
8,7.00 to 7.96,"CCCCC(=O)Nc1csc(-c2cncc(-c3ccc(C4(O)COC4)c(OC)c3)n2)c1 [Example A35, N-(5-(6-(4-(3-hydroxyoxetan-3-yl)-3-methoxyphenyl)pyrazin-2-yl)thiophen-3-yl)pentanamide]"
9,6.00 to 7.00,"CCCCC(=O)Nc1csc(-c2cncc(-c3ccc(C(=O)NS(=O)(=O)N(C)C)c(OC)c3)n2)c1 [Example B7, 2-methoxy-4-(6-(4-pentanamidothiophen-2-yl)pyrazin-2-yl)-N-(N,N-dimethylsulfamoyl)benzamide]"
10,7.00 to 7.96,"CN1CCC(C(=O)N2CCOc3cc(-c4cncc(-c5cc(NC(=O)CC6CC6)cs5)n4)ccc32)CC1 [Example E2, 2-cyclopropyl-N-(5-(6-(4-(1-methylpiperidin-4-carbonyl)-3,4-dihydro-2H-benzo[b][1,4]oxazin-7-yl)pyrazine-2-yl)thiophene-3-yl) acetamide]"
11,7.00 to 7.96,"COc1cc(-c2cncc(-c3cc(NC(=O)CC4CCCC4)cs3)n2)ccc1C(=O)N1CCN(C)CC1 [Example B40, 2-cyclopentyl-N-(5-(6-(3-methoxy-4-(4-methylpiperazine-1-carbonyl)phenyl)pyrazin-2-yl)thiophen-3-yl)acetamide]"
12,7.00 to 7.96,"COc1cc(-c2cncc(-c3cc(NC(=O)CC4CC4)cs3)n2)ccc1C(=O)N1CCC(OC)CC1 [Example B48, 2-cyclopropyl-N-(5-(6-(3-methoxy-4-(4-methoxypiperidine-1-carbonyl)phenyl)pyrazin-2-yl)thiophen-3-yl)acetamide]"
13,6.00 to 7.00,"COc1cc(-c2cncc(-c3cc(NC(=O)CC4CC4)cs3)n2)ccc1C(=O)Nc1nnn[nH]1 [Example B12, 2-methoxy-4-(6-(4-(2-cyclopropylacetamido)thiophen-2-yl)pyrazin-2-yl)-N-(1H-tetrazol-5-yl)benzamide]"
14,7.00 to 7.96,"COc1cc(-c2cncc(-c3cc(NC(=O)CC45CC(C4)C5)cs3)n2)ccc1C(=O)Nc1nnco1 [Example B80, 4-(6-(4-(2-(bicyclo[1.1.1]pentan-1-yl)acetamido)thiophen-2-yl)pyrazin-2-yl)-2-methoxy-N-(1,3,4-oxadiazol-2-yl)benzamide]"
15,6.00 to 7.00,"COc1cc(-c2cncc(-c3cc(NC(=O)CC4CCCCC4)cs3)n2)ccc1C(=O)Nc1nnn[nH]1 [Example B14, 2-methoxy-4-(6-(4-(2-cyclohexylacetamido)thiophen-2-yl)pyrazin-2-yl)-N-(1H-tetrazol-5-yl)benzamide]"
16,5.00 to 6.00,"CCCCC(=O)Nc1csc(-c2cncc(-c3ccc(OC)c(OC)c3)c2C(N)=O)c1 [Example C3, 3-(3,4-dimethoxyphenyl)-5-(4-pentanamidothiophen-2-yl)isonicotinamide]"
17,6.00 to 7.00,"CCCCC(=O)Nc1csc(-c2cncc(-c3ccc(C(=O)N(C)C4CCN(C)CC4)c(F)c3)n2)c1 [Example B73, 2-fluoro-N-methyl-N-(1-methylpiperidin-4-yl)-4-(6-(4-pentanamidothiophen-2-yl)pyrazin-2-yl)benzamide]"
18,6.00 to 7.00,"CCCCC(=O)Nc1csc(-c2cncc(-c3ccc(CN4CCOCC4)c(OC)c3)n2)c1 [Example B30, N-(5-(6-(3-methoxy-4-(morpholinomethyl)phenyl)pyrazin-2-yl)thiophen-3-yl)pentanamide]"
19,6.00 to 7.00,"CCCCC(=O)Nc1csc(-c2cncc(N3CCN(S(C)(=O)=O)CC3)n2)c1 [Example D6, N-(5-(6-(4-(methylsulfonyl)piperazin-1-yl)pyrazin-2-yl)thiophen-3-yl)pentanamide]"

# More lines, now with the values behind:
row,Compound,pIC50
1,"COc1ccc(-c2cncc(-c3cc(NC(=O)C4CC4)cs3)n2)cc1OC [Example A6, N-(5-(6-(3,4-dimethoxyphenyl)pyrazin-2-yl)thiophen-3-yl)cyclopropanecarboxamide]",6.00 to 7.00
2,"COc1ccc(-c2cncc(-c3cc(NC(=O)C4CCC4)cs3)n2)cc1C#N [Example A22, N-(5-(6-(3-cyano-4-methoxyphenyl)pyrazin-2-yl)thiophen-3-yl)cyclobutanecarboxamide]",6.00 to 7.00
3,"COc1ccc(-c2cncc(-c3cc(NC(=O)CC4CC4)cs3)n2)cc1OC [Example A31, 2-cyclopropyl-N-(5-(6-(3,4-dimethoxyphenyl)pyrazin-2-yl)thiophen-3-yl)acetamide]",7.00 to 7.96
4,"CCCCC(=O)Nc1csc(-c2cncc(-c3cccc(OC)c3OC)n2)c1 [Example A12, N-(5-(6-(2,3-dimethoxyphenyl)pyrazin-2-yl)thiophen-3-yl)pentanamide]",5.00 to 6.00
5,"COc1cc(-c2cncc(-c3cc(NC(=O)C(C)(C)C4CC(F)(F)C4)cs3)n2)ccc1C(=O)N(C)C1CC2(C1)CN(C)C2 (stereo not shown) [Example 203, 4-[6-(4-{[2-(3,3-difluorocyclobutyl)-2-methylpropionyl]amino}thiophen-2-yl)pyrazin-2-yl]-2-methoxy-N-methyl-N-(2-methyl-2-azaspiro [3.3]hept-6-yl) benzamide]",7.00 to 7.96
6,"COc1ccc(-c2cncc(-c3cc(NC(=O)C4CCCC4)cs3)n2)cc1OC [Example A8, N-(5-(6-(3,4-dimethoxyphenyl)pyrazin-2-yl)thiophen-3-yl)cyclopentanecarboxamide]",6.00 to 7.00
7,"O=C(CC1CCC1)Nc1csc(-c2cncc(-c3ccnc4c3ccn4CC(F)(F)F)n2)c1 [Example 215, 2-Cyclobutyl-N-(5-{6-[1-(2,2,2-trifluoroethyl)pyrrolo [2,3-b]pyridin-4-yl]pyrazin-2-yl}thiophen-3-yl) acetamide]",6.00 to 7.00
8,"CCCCC(=O)Nc1csc(-c2cncc(-c3ccc(OCCN4CCOCC4)c(OC)c3)n2)c1 [Example 179, N-{5-[6-(3-methoxy-4-{[2-(morpholin-4-yl)ethyl]oxy}phenyl)pyrazin-2-yl]thiophen-3-yl} pentanamide]",7.00 to 7.96
9,"COc1cc(-c2cncc(-c3cc(NC(=O)CC4CCC4)cs3)n2)ccc1OCCc1cnn(C)c1 [Example 187, 2-Cyclobutyl-N-(5-(6-(3-methoxy-4-(2-(1-methyl-1H-pyrazol-4-yl)ethoxy)phenyl)pyrazin-2-yl)thiophen-3-yl) acetamide]",7.00 to 7.96
10,"CCCCC(=O)Nc1csc(-c2cncc(-c3ccc(F)c(F)c3)n2)c1 [Example A27, N-(5-(6-(3,4-difluorophenyl)pyrazin-2-yl)thiophen-3-yl)pentanamide]",5.00 to 6.00
11,"COc1cc(-c2cncc(-c3cc(NC(=O)CC4CCC4)cs3)n2)ccc1OCC(=O)N1CCN(C)CC1 [Example 176, 2-cyclobutyl-N-{5-[6-(3-methoxy-4-{[2-(4-methylpiperazin-1-yl)-2-oxoethyl]oxy}phenyl)pyrazin-2-yl]thiophen-3-yl} acetamide]",> 8.00
12,"COc1cc(-c2cncc(-c3cc(NC(=O)CC4CCC4)cs3)n2)ccc1OCCN1CCCC1=O [Example 170, 2-Cyclobutyl-N-{5-[6-(3-methoxy-4-{[2-(2-oxotetrahydro-1H-pyrrol-1-yl)ethyl]oxy}phenyl)pyrazin-2-yl]thiophen-3-yl} acetamide]",7.00 to 7.96
13,Cn1ccc2c(-c3cncc(-c4cc(NC(=O)CC5CCC5)cs4)n3)ccnc21 [Example 224],6.00 to 7.00
14,"COc1cc(-c2cncc(-c3cc(NC(=O)CC4CC(O)C4)cs3)n2)ccc1C(=O)N(C)C1CC2(C1)CN(C)C2 (stereo not shown) [Example 205, 4-(6-(4-(2-(3-hydroxycyclobutyl)acetylamino)thiophen-2-yl)pyrazin-2-yl)-2-methoxy-N-methyl-N-(2-methyl-2-azaspiro [3.3]heptane-6-yl) benzamide]",7.00 to 7.96
15,"CCCCNC(=O)c1csc(-c2cncc(-c3ccc(OC)c(OC)c3)n2)c1 [Example 182, N-butyl-5-[6-(3,4-dimethoxyphenyl)pyrazin-2-yl] thiophen-3-formamide]",6.00 to 7.00

# Source: patent publication US20240308992A1 (Biopolar Youtang(Guangdong) Pharmaceutical Co., Ltd., priority 2021, published 2024)
